Experimental data as given in ChEMBL document CHEMBL5150055, “B-cell Lymphoma 6 Inhibitors: Current Advances and Prospects of Drug Development for Diffuse Large B-cell Lymphomas” (J Med Chem, 2022).
Values after ≈ are worked out from the molar mass of the structure shown.

Columns and labels:
[1] = Aqueous solubility of compound; assay type: physicochemical; details: buffer
[2] = biological target: T1, B-cell lymphoma 6 protein (Homo sapiens, UniProt P41182); experiment: Binding affinity to BCL6 (unknown origin) assessed as ratio of Kinact/Ki incubated for 4 hrs by IPC assay
[3] = biological target: T1, B-cell lymphoma 6 protein; experiment: Inhibition of D2-SMRT peptide binding to human BCL6 BTB-POZ domain incubated for 60 mins by TR-FRET assay
[4] = biological target: T1, B-cell lymphoma 6 protein; experiment: Displacement AF647-BCOR peptide from human BCL6 BTB-POZ domain incubated for 60 mins by TR-FRET assay
[5] = biological target: T1, B-cell lymphoma 6 protein; experiment: Displacement AF647-NCOR peptide from human BCL6 BTB-POZ domain incubated for 60 mins by TR-FRET assay
[6] = biological target: T1, B-cell lymphoma 6 protein; experiment: Binding affinity to BCL6 BTB domain (5 to 129 residues) (unknown origin) expressed in Escherichia coli using 5-TAMRA-RSEIISTAPSSWVVPGP as substrate incubated for 1 hrs by FP assay
[7] = biological target: T1, B-cell lymphoma 6 protein; experiment: Binding affinity to BCL6 BTB domain (5 to 129 residues) (unknown origin) expressed in Escherichia coli by SPR analysis
[8] = biological target: T1, B-cell lymphoma 6 protein; experiment: Binding affinity to wild type full length BCL6 BTB domain having SMRT BBD motif sequence (unknown origin) transfected in human HEK293 cells by electrophoretic mobility shift assay; assay type: cell-based
[9] = Binding affinity to wild type full length BCL6 BTB domain SMRT BBD motif sequence mutant (unknown origin) transfected in human HEK293 cells by electrophoretic mobility shift assay; assay type: cell-based
OCI-Ly1 = experiment: Antiproliferative activity against human OCI-Ly1 cells assessed as growth inhbition by measuring metabolic viability incubated for 48 hrs by fluorometric resazurin reduction method; assay type: functional, cell-based; details: OCI-Ly1, 48 h
OCI-Ly7 [10] = experiment: Antiproliferative activity against human OCILY7 cells assessed as growth inhbition by measuring metabolic viability incubated for 48 hrs by fluorometric resazurin reduction method; assay type: functional, cell-based; details: OCI-Ly7, 48 h
OCI-Ly10 = experiment: Antiproliferative activity against human OCI-Ly10 cells assessed as growth inhbition by measuring metabolic viability incubated for 48 hrs by fluorometric resazurin reduction method; assay type: functional, cell-based; details: OCI-Ly10, 48 h
[11] = biological target: T1, B-cell lymphoma 6 protein; experiment: Binding affinity to BCL6 BTB domain (unknown origin) by SPR analysis
[12] = biological target: T1, B-cell lymphoma 6 protein; experiment: Inhibition of BCL6 (unknown origin) by HTRF assay
SUD4 = experiment: Antitumor activity against BCL6 dependent human SU-DHL-4 cells assessed as cell growth inhibition; assay type: functional, cell-based
L02 = experiment: Antitumor activity against human L02 cells assessed as cell growth inhibition; assay type: functional, cell-based
SU-DHL-6 = experiment: Antitumor activity against BCL6 dependent human SU-DHL-6 cells assessed as cell growth inhibition; assay type: functional, cell-based
OCI-Ly7 [13] = experiment: Antitumor activity against BCL6 dependent human OCILY7 cells assessed as cell growth inhibition; assay type: functional, cell-based
Farage = experiment: Antitumor activity against BCL6 dependent human Farage cells assessed as cell growth inhibition; assay type: functional, cell-based
DOHH-2 = experiment: Antitumor activity against BCL6 dependent human DOHH-2 cells assessed as cell growth inhibition; assay type: functional, cell-based

Q: For `C[C@@H](NC(=O)COC(=O)CCN1C(=O)/C(=C2/C(=O)Nc3ccc(Cl)cc32)SC1=S)C(=O)N[C@@H](CCC(=O)O)C(=O)O`, which solubility [1] is on record?
A: 218 ng/mL (≈ 0.348 µM)

Q: For `O=C(CCl)NCCCCn1c(=O)[nH]c2ccc(Nc3ccc([N+](=O)[O-])cc3Cl)cc21`, which Ratio [2] is on record?
A: 3 10^1/M/s

Q: Which IC50 [3] does the source give for `Cc1ncccc1[C@H]1C[C@@H](c2cccc3nc(N)ccc23)Nc2c(F)cnn21` here?
A: 10 nM

Q: And the IC50 [4]?
A: 25.1 nM

Q: What about the IC50 [5] of the same compound?
A: 25.1 nM

Q: For `Cc1cc(C)n(-c2ncc(Cl)c(Nc3ccc(Cl)cc3)n2)n1`, which Kd [6] is on record?
A: 18 µM

Q: And the Kd [7]?
A: 20 µM

Q: With `CCC(=O)NCCN1C(=O)C(CCCCNC(=O)CCl)Oc2cc(Nc3cc(OC4CCOCC4)c([N+](=O)[O-])cc3Cl)ccc21` (stereo unspecified) as the compound, how does the Ratio [2] read?
A: 1.9 10^4/M/s

Q: Which Kd [8] does the source give for H-HHHHHHPTATHAGLVATVKEAGRSIHEI-OH here?
A: 10.2 µM

Q: What about the Kd [9] of the same compound?
A: 148 µM

Q: What about the IC50 (OCI-Ly1) of the same compound?
A: 11.3 µM

Q: And the IC50 (OCI-Ly7 [10])?
A: 11.3 µM

Q: And the IC50 (OCI-Ly10)?
A: 11.3 µM

Q: For `C[C@@H]1CN(c2ncc(F)c(Nc3ccc(NC(=O)c4cccc(Br)n4)cc3)n2)C[C@H](C)N1`, which Kd [11] is on record?
A: 1610 nM

Q: And the Kd [12]?
A: 1370 nM

Q: And the IC50 (SUD4)?
A: 1390 nM

Q: And the IC50 (L02)?
A: 21.6 µM

Q: What about the IC50 (SU-DHL-6) of the same compound?
A: 1100 nM

Q: What about the IC50 (OCI-Ly7 [13]) of the same compound?
A: 1100 nM

Q: What about the IC50 (Farage) of the same compound?
A: 1100 nM

Q: And the IC50 (DOHH-2)?
A: 1100 nM
